One data set deals with T1, α7* nicotinic receptor (Rattus norvegicus, UniProt Q05941).
T1 construct: Whole rat brain (minus cortex, striatum and cerebellum) was homogenized; from tissue; host or cells: rat whole brain membranes (minus cortex, striatum and cerebellum)
Kind of data set: [3H]Methyllycaconitine ([3H]MLA) binding assay.

The target in another data set is α6β2* nicotinic receptor (Rattus norvegicus, UniProt P12390+P43143). The data set can be described thus: Nicotine-evoked [3H]DA overflow from superfused striatal slices. It counts as cell-based.
Data set [1] addresses T2, dopamine transporter (DAT) (Rattus norvegicus, UniProt P23977).
T2 construct: Striata were homogenized in 20 ml of ice-cold sucrose solution; from tissue; host or cells: striatal synaptosomes
The data set can be described thus: [3H]Dopamine uptake assay, striatal synaptosomes. It counts as biochemical.

In data set [2] the target is T3, serotonin transporter (SERT) (Rattus norvegicus, UniProt P31652).
T3 construct: Rat hippocampus was homogenized in 20 mL cold 0.32 M sucrose; from tissue; host or cells: rat hippocampal synaptosomes
The data set can be described thus: [3H]5-HT uptake assay, hippocampal synaptosomes. In kind it is biochemical. The conditions noted are these: for IC50: Table 4, earlier studies.

Data set [3] addresses T4, α4β2* nicotinic receptor (Rattus norvegicus, UniProt P09483+P12390). The data set can be described thus: Nicotine-evoked 86Rb+ efflux assay, thalamic synaptosomes. It counts as biochemical. Details: from tissue. The note with it: read-out: Inhibition of Nicotine-Evoked 86Rb+ Efflux (IC50) α4β2*.
In data set [4] the target is T4, α4β2* nicotinic receptor. The data set can be described thus: High affinity [3H]nicotine binding assay. Details: The pellet containing the striatal membranes was resuspended; from tissue; host or cells: rat striatal membranes.
The next data set has as its target α3β4* nicotinic receptor (Rattus norvegicus, UniProt P04757+P12392). The data set can be described thus: Nicotine-evoked [3H]NE overflow from superfused hippocampal slices. It counts as cell-based. The conditions noted are these: inhibition of 10 μM S(−)-nicotine.
The subject of data set [5] is methamphetamine-evoked endogenous DA release from striatal slices. The data set can be described thus: Methamphetamine-evoked endogenous DA overflow from superfused striatal slices. In kind it is cell-based. The note with it: read-out: Inhibition of Methamphetamine Evoked DA Overflow IC50 (Mean).
In data set [6] the target is T5, VMAT2 (Rattus norvegicus, UniProt Q01827). The data set can be described thus: biochemical.
Data set [7] addresses T5, VMAT2. The data set can be described thus: [3H]Dihydrotetrabenazine ([3H]DTBZ) binding assay, synaptic vesicles. The conditions noted are these: inhibition of [3H]DTBZ binding Ki, text b58.
[8] abbreviates: Table 1, rat whole brain membranes, read-out: [3H]MLA Binding (Ki) α7*.
[9] abbreviates: Table 1, inhibition of 10 μM S(−)-nicotine, NI: no inhibition, read-out: Inhibition of Nicotine-Evoked [3H]DA Overflow (IC50) α6β2*.
The mark [10] stands for this setting: Table 1, read-out: [3H]DA Uptake (Ki).
Setting [11] is: Table 3, earlier study, read-out: Ki [3H]-Dopamine Uptake Assay.
[12] abbreviates: Table 1, read-out: [3H]5-HT Uptake (Ki) SERT.
The mark [13] stands for this setting: Table 1, rat striatal membranes, read-out: [3H]Nicotine Binding (Ki) α4β2*.
Where [14] appears, read: Table 3, earlier study, read-out: Ki [3H]-Nicotine Binding Assay.
The mark [15] stands for this setting: inhibition of nicotine-evoked [3H]DA overflow IC50.
[16] abbreviates: Table 4, earlier studies, read-out: [3H]Nicotine Binding (Ki) α4β2*.

Molecules are shown by their SMILES. Like-named read-outs stand apart in the source and are kept apart here.

What is called Ki is a dissociation constant, usually derived from enzyme kinetics or from competition with a known ligand. In general, IC50 refers to the concentration needed to halve the response being measured. The term melting point denotes the temperature of the solid-liquid transition.

T5 sequence (Q01827 whole entry): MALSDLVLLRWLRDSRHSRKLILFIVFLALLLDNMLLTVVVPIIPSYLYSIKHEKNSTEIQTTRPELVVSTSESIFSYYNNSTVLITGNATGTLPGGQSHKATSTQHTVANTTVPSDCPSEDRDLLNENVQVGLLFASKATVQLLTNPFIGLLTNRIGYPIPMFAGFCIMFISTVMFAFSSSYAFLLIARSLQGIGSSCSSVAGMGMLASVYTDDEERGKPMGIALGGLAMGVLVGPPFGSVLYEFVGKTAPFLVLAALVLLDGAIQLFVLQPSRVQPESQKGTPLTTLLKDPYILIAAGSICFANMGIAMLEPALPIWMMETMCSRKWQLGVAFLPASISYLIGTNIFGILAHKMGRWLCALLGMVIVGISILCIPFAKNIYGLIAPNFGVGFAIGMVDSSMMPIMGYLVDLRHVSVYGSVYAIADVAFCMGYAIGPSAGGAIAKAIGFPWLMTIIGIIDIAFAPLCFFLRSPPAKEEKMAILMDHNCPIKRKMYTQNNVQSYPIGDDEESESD
T2 sequence (P23977 whole entry): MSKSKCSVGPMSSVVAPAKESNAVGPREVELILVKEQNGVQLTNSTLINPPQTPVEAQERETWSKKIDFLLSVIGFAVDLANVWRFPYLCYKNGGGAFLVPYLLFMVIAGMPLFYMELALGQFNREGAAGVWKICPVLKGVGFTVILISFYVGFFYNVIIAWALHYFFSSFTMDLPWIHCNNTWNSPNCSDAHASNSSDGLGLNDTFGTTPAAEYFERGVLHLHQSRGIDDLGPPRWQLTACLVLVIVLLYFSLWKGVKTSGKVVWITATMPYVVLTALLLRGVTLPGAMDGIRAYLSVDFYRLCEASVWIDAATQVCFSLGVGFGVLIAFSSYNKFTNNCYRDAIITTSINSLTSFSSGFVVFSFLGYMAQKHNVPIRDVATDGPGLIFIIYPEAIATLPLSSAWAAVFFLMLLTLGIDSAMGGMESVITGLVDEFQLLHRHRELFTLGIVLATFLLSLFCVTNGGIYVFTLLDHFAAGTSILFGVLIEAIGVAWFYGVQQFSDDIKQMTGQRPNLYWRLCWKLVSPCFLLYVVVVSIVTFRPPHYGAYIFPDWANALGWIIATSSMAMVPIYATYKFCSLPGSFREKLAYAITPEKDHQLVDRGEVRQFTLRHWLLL
T1 sequence (Q05941 23-502): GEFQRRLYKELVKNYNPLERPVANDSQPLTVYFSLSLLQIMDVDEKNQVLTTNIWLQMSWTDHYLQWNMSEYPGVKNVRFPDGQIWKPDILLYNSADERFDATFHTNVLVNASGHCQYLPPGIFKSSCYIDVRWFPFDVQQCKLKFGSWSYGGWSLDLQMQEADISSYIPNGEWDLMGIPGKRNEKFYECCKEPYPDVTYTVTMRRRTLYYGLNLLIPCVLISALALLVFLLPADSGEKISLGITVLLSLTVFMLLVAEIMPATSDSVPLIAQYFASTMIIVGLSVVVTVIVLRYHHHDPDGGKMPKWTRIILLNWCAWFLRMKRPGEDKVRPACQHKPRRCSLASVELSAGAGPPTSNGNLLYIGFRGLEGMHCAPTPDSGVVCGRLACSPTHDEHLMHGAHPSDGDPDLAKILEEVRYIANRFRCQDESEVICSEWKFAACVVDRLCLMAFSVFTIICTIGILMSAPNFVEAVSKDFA
T4 sequence (P09483 31-630): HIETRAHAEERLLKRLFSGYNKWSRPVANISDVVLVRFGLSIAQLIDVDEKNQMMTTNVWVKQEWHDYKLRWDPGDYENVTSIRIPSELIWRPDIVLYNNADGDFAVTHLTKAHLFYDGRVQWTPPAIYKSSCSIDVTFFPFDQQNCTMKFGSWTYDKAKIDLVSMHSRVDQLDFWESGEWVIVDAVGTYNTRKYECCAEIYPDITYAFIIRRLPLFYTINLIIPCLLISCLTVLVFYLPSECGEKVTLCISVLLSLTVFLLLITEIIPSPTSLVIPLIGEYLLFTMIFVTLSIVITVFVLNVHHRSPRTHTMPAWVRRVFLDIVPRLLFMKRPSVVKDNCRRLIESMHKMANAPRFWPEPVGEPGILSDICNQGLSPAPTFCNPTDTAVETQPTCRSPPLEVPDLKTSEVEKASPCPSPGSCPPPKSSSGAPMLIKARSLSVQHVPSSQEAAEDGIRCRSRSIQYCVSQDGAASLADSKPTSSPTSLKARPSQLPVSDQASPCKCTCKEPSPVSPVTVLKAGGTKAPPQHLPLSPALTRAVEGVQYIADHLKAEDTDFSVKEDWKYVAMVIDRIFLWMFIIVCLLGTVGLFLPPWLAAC
T4 sequence (P12390 25-500): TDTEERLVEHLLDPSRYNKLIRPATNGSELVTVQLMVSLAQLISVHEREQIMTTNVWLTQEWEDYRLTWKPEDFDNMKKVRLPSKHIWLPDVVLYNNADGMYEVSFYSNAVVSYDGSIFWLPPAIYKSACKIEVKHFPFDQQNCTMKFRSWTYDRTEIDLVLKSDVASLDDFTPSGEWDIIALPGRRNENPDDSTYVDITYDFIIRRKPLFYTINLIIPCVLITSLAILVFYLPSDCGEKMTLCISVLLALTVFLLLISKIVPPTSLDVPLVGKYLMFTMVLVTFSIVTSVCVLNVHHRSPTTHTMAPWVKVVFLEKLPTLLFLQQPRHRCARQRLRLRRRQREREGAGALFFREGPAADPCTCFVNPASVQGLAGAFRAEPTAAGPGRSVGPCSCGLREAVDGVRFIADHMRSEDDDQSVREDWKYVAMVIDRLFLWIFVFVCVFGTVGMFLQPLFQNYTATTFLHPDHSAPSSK
α3β4* nicotinic receptor, sequence (P04757 26-499): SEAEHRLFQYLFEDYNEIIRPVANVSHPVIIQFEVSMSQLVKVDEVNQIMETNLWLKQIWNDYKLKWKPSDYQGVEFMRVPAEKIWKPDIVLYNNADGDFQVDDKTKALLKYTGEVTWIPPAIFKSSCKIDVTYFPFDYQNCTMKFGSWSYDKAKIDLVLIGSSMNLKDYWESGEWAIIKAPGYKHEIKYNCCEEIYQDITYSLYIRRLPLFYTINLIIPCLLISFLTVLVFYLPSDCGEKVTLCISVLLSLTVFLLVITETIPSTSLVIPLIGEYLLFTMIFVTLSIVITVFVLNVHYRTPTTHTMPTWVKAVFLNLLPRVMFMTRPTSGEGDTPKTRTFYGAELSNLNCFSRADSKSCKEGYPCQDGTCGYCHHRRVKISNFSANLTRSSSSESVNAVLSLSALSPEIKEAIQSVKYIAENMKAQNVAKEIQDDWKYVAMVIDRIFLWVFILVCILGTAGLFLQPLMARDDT
α3β4* nicotinic receptor, sequence (P12392 21-495): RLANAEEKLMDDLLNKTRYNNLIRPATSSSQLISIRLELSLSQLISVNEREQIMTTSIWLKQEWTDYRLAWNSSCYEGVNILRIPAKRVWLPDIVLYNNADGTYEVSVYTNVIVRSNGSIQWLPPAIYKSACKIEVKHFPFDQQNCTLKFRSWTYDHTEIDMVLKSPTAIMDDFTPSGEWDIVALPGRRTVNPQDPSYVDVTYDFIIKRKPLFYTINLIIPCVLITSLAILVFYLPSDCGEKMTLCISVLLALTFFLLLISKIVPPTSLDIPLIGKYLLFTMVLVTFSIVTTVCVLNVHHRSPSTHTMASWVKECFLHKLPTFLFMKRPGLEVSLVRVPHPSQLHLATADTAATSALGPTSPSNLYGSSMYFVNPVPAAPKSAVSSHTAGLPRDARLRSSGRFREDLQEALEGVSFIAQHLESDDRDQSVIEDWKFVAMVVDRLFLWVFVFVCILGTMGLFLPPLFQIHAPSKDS
α6β2* nicotinic receptor, sequence (P43143 31-493): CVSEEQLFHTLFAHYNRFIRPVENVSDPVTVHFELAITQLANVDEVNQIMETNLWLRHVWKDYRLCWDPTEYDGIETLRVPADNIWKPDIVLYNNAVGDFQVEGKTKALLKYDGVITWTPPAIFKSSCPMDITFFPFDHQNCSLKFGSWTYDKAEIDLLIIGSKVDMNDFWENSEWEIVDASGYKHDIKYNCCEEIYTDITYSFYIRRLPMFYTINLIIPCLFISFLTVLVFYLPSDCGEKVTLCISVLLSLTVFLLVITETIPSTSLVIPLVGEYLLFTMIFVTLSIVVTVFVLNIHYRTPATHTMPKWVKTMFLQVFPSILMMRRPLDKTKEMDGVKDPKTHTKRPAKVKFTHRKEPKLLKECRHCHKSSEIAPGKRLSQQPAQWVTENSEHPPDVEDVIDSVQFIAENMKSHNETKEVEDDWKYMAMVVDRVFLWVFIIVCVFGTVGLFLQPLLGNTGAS
α6β2* nicotinic receptor, sequence (P12390 25-500): as the sequence (P12390 25-500) above
T3 sequence (P31652 whole entry): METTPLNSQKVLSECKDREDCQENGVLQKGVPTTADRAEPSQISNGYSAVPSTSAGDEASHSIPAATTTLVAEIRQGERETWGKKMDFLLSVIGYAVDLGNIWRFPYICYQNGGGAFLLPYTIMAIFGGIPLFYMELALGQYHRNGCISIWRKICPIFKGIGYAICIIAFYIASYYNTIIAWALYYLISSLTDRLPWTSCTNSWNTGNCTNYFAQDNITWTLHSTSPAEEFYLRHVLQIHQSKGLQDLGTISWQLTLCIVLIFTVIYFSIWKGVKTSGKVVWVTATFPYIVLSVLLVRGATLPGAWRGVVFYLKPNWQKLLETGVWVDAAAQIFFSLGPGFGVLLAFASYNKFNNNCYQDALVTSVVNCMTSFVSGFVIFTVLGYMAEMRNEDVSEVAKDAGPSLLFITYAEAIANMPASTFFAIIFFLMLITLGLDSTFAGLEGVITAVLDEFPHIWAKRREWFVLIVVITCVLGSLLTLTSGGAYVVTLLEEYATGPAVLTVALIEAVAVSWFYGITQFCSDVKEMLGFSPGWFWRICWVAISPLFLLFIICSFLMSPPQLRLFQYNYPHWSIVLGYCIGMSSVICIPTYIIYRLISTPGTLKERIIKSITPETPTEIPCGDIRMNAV

Regarding `Cc1ccc(S(=O)(=O)O[C@@H](C[C@H]2CCC[C@@H](CC(=O)c3ccccc3)N2C)c2ccccc2)cc1` [Compound 2, 2S,6R,8S-2-[6-(β-Para-toluenesulfonyloxyphenethyl)-1-methyl-2-piperidyl]-acetophenone], the inhibitory constant (Ki) on α7* nicotinic receptor (setting [8]) was 10800 nM; in [1] (setting [10]) it was 29100 nM; in data set [1] (setting [11]) it was 39000 nM; in [2] (setting [12]), 1670 nM; at α4β2* nicotinic receptor [4] (setting [13]), 11 nM; at α4β2* nicotinic receptor [4] (setting [14]), 4.1 nM. Besides, the results for the IC50 at α6β2* nicotinic receptor (setting [9]) and on α4β2* nicotinic receptor [3] were 1000 nM and 2 nM, respectively.

Consider `CN1[C@@H](CC(=O)c2ccccc2)CCC[C@H]1/C=C/c1ccccc1` [Compound 5, N-methyl-2R-phenacyl-6S-trans-styrylpiperidine], for which the inhibitory constant (Ki) at α7* nicotinic receptor (setting [8]) was 34200 nM; in [1] (setting [10]), 1740 nM; in data set [1] (setting [11]) it was 3000 nM; in [2] (setting [12]) it was 1860 nM; on α4β2* nicotinic receptor [4] (setting [13]), 440 nM; on α4β2* nicotinic receptor [4] (setting [14]), 130 nM. For the same compound, the entries for the “inhibition of DAT, potency compared with lobeline” value in [1] (Table 1 data) and in [1] (earlier study (Table 3)) were 17 fold and 10 fold, respectively. For the same compound, the 50% inhibitory concentration (IC50) at α4β2* nicotinic receptor [3] amounted to 300 nM.

The compound `CN1[C@@H](C[C@@H](O)c2ccccc2)CCC[C@H]1/C=C/c1ccccc1` [Compound 6, N-Methyl-2R-(2R-hydroxy-2-phenethyl)-6S-trans-styrylpiperidine] showed a melting point of 104 to 105 °C. On α7* nicotinic receptor, the inhibition constant Ki was 1600 nM. For the same compound, in data set [1] (read-out: [3H]DA Uptake (Ki)), the Ki is 860 nM. The compound also yielded a Ki in data set [2] ([3H]5-HT Uptake (Ki) SERT) of 40 nM. The Ki in [2] (inhibition of serotonin uptake Ki) fell in the range of 10 to 380 nM. Besides, the inhibition constant (Ki) on α4β2* nicotinic receptor [4] (setting [13]) came to 7600 nM.

With `CN1[C@H](/C=C/c2ccccc2)CCC[C@@H]1/C=C/c1ccccc1` [Compound 14, N-methyl-2,6-cis-di-trans-styrylpiperidine], the melting point was in the range of 149 to 150 °C. In addition, on α6β2* nicotinic receptor, the “selectivity as inhibitor of α6β2* (and α3β4*) subtypes of nAChR compared to inhibition of SERT function” value amounted to 770 fold, the “selectivity for the α6β2* subtype of nAChR relative to interaction with the MTBZ site on VMAT2” value turned out to be 43 fold and the “selectivity for α6β2* (and α3β4*) subtypes of nAChR compared to α4β2* or α7* subtypes” value was more than 370 fold. On α6β2* nicotinic receptor (Inhibition of Nicotine-Evoked [3H]DA Overflow (IC50) α6β2*), this compound returned an IC50 of 30 nM. Besides, the 50% inhibitory concentration (IC50) at α6β2* nicotinic receptor (setting [15]) was found to be 0.3 nM. Also, the “more potent at inhibiting nicotine-evoked [3H]DA and [3H]NE release compared to Compound 15” value on α6β2* nicotinic receptor (rat striatal and hippocampal slices, earlier data) came out at 18 fold. Moreover, the Ki in data set [1] (setting [10]) is 580 nM. For the same compound, the inhibitory constant (Ki) in data set [1] (setting [11]) worked out at 800 nM. For the same compound, at α3β4* nicotinic receptor (Table 1), the IC50 came out at 10 nM. The compound further displayed a concentration for half-maximal inhibition (IC50) against α3β4* nicotinic receptor (Table 4, earlier studies) of 21 nM. Also, the Ki in [2] (setting [12]) was 8940 nM. In data set [2], this compound gave a half-inhibitory concentration (IC50) of 23200 nM. Moreover, in data set [5] (Rattus norvegicus), the IC50 lay within 430 to 1250 nM. Also, the concentration for half-maximal inhibition (IC50) in data set [5] (superfused rat striatal slices) was found to be 700 nM. For the same compound, the half-maximal inhibitory concentration (IC50) at α4β2* nicotinic receptor [3] was more than 10000 nM. The compound also had an IC50 against VMAT2 [6] of 1290 nM. Moreover, the inhibition constant (Ki) at α4β2* nicotinic receptor [4] (setting [13]) was more than 100000 nM. Moreover, the Ki at α4β2* nicotinic receptor [4] (setting [14]) is more than 100000 nM. For the same compound, on α4β2* nicotinic receptor [4] (setting [16]), the Ki was found to be 11000 nM.

Take `CN1[C@H](/C=C/c2ccccc2)CCC[C@H]1/C=C/c1ccccc1` [Compound 15, N-methyl-2S,6S-trans-di-trans-styrylpiperidine]: the “selectivity as inhibitor of α6β2* (and α3β4*) subtypes of nAChR compared to inhibition of SERT function” value on α6β2* nicotinic receptor amounted to 2.2 fold. Further, the “selectivity for the α6β2* subtype of nAChR relative to interaction with the MTBZ site on VMAT2” value at α6β2* nicotinic receptor turned out to be 9.5 fold. Also, the “selectivity for α6β2* (and α3β4*) subtypes of nAChR compared to α4β2* or α7* subtypes” value on α6β2* nicotinic receptor is recorded as more than 24 fold. In addition, the concentration for half-maximal inhibition (IC50) on α6β2* nicotinic receptor (setting [9]) is 1000 nM; on α6β2* nicotinic receptor (Table 4, earlier studies, inhibition of 10 μM S(−)-nicotine, read-out: Inhibition of Nicotine-Evoked [3H]DA Overflow (IC50) α6β2*), 540 nM; on α6β2* nicotinic receptor (setting [15]), 100 to 1000 nM; against α3β4* nicotinic receptor (Table 1), 30 nM; in data set [2] it was 1190 nM; in [5] (Rattus norvegicus), more than 100000 nM. This compound also gave a half-maximal inhibitory concentration (IC50) on VMAT2 [6] of 5150 nM. In addition, the Ki in [1] (setting [10]) is 260 nM; in data set [2] (setting [12]), 380 nM; in data set [2] (read-out: inhibition of serotonin uptake Ki) it was 10 to 380 nM; on α4β2* nicotinic receptor [4] (setting [13]) it was 11900 nM; at α4β2* nicotinic receptor [4] (setting [16]) it was 13000 nM. Moreover, the “more potent inhibiting the function of SERT than Compound 14” value in data set [2] (earlier data) amounted to 19 fold. The “loss of affinity for the nicotinic receptor compared to lobeline” value on α4β2* nicotinic receptor [4] (Table 1 data, [3H]nicotine binding) came to 1000 fold.

Take `CN1[C@@H](/C=C/c2ccccc2)CCC[C@@H]1/C=C/c1ccccc1` [Compound 16, N-methyl-2R,6R-trans-di-trans-styryl piperidine]: the melting point lay in the range of 92 to 93 °C. In addition, the IC50 in data set [5] (Rattus norvegicus) was in the range of 430 to 1250 nM. Further, the IC50 in data set [5] (superfused rat striatal slices) came to 430 nM. Also, the inhibition constant (Ki) on α4β2* nicotinic receptor [4] (setting [13]) is 12300 nM.

Regarding `CN1[C@H](CCc2ccccc2)CCC[C@H]1CCc1ccccc1` [Compound 18, N-methyl-2S,6S-trans-di-(2-phenethyl)piperidine], the Ki on α7* nicotinic receptor (setting [8]) amounted to 24300 nM; in data set [1] ([3H]DA Uptake (Ki)), 3690 nM; in [2] ([3H]5-HT Uptake (Ki) SERT), 2920 nM. The IC50 is 3 nM at α6β2* nicotinic receptor (read-out: inhibition of nicotine-evoked [3H]DA overflow IC50) and more than 100000 nM in [5] (Rattus norvegicus).

Turning to `COc1ccccc1CC[C@H]1CCC[C@@H](CCc2ccccc2OC)N1C` [Compound 37, N-methyl-2,6-cis-di-(o-methoxyphenethyl)piperidine], the Ki on α7* nicotinic receptor (setting [8]) is 26000 nM; on VMAT2 [7], 430 to 680 nM; at α4β2* nicotinic receptor [4] (setting [13]) it was more than 100000 nM.

With `COc1cccc(CC[C@H]2CCC[C@@H](CCc3cccc(OC)c3)N2C)c1` [Compound 39, N-methyl-2,6-cis-di-(m-methoxyphenethyl)piperidine], the Ki on α7* nicotinic receptor (setting [8]) is 25500 nM; at VMAT2 [7] it was 430 to 680 nM; at α4β2* nicotinic receptor [4] (setting [13]), more than 100000 nM.
